These results are taken from article PMC9369335, “Tailoring the Structure of Cell Penetrating DNA and RNA Binding Nucleopeptides” (International Journal of Molecular Sciences, 2022).

Square brackets hold non-standard residues; d marks the D form. Peptide text beside a SMILES is read from it. * marks the point of attachment. FITC = O=C1OC2(c3ccc(O)cc3Oc3cc(O)ccc32)c2ccc(NC(=S)*)cc21; Acetyl(thymin-1-yl) = Cc1cn(CC(=O)*)c(=O)[nH]c1=O; Dab = NCC[C@H](N)C(=O)O; Ahx = NCCCCCC(=O)O

The data set relates to HT29, CCRF-CEM and Jurkat cells. Briefly: Cellular and nuclear uptake of FITC-labelled nucleopeptides by flow cytometry. The class given is cell-based, human. As to conditions: 10 µM, 3 h, 37 °C, comparison in words. As for the experimental part:
The promising results achieved with 32 and 33 in terms of DNA and RNA recognition and binding studies prompted us to investigate their capability to cross the cellular membrane and to distribute between cytoplasm and nucleus. Specifically, cell penetration experiments were carried out employing 34 and 35 (the FITC-labelled derivatives of 32 and 33, respectively) on three different cancer cell lines (Jurkat, HT29 and CEM). […]
The fluorescence of Fluorescein Isothiocyanate (FITC) (excitation 488 nm, emission 525 nm) was used to evaluate the intracellular and intranuclear nucleopeptides uptake using flow cytometry. […] To evaluate cellular uptake, the cell pellets were suspended in 500 µL of PBS and analyzed by flow cytometry. For nuclear uptake, the nuclei were extracted with PBS-Triton (0.5%) for 15 min at room temperature (RT), washed with PBS-Triton (0.1%), suspended in 500 µL of PBS and analyzed by FACS ARIA III flow cytometry (BD Bioscience, Mountain View, CA, USA) with DIVA software 8.01. […] The uptake was evaluated as mean fluorescence and was analyzed using FlowJo 10.7.1 software.

For `Cc1cn(CC(=O)NCC[C@H](NC(=O)CCCCCNC(=S)Nc2ccc3c(c2)C(=O)OC32c3ccc(O)cc3Oc3cc(O)ccc32)C(=O)N[C@@H](CCCNC(=N)N)C(=O)N[C@@H](CCNC(=O)Cn2cc(C)c(=O)[nH]c2=O)C(=O)N[C@@H](CCCNC(=N)N)C(=O)N[C@@H](CCNC(=O)Cn2cc(C)c(=O)[nH]c2=O)C(=O)N[C@@H](CCCNC(=N)N)C(=O)N[C@@H](CCNC(=O)Cn2cc(C)c(=O)[nH]c2=O)C(=O)N[C@@H](CCCNC(=N)N)C(=O)N[C@@H](CCNC(=O)Cn2cc(C)c(=O)[nH]c2=O)C(=O)N[C@@H](CCCNC(=N)N)C(=O)N[C@@H](CCNC(=O)Cn2cc(C)c(=O)[nH]c2=O)C(=O)N[C@@H](CCCNC(=N)N)C(N)=O)c(=O)[nH]c1=O` [compound 34] ({FITC-Ahx}-[Dab](Acetyl(thymin-1-yl))R[Dab](Acetyl(thymin-1-yl))R[Dab](Acetyl(thymin-1-yl))R[Dab](Acetyl(thymin-1-yl))R[Dab](Acetyl(thymin-1-yl))R[Dab](Acetyl(thymin-1-yl))R-NH2), the “concentration in cytoplasm (cellular uptake, mean fluorescence)” value (1 × 10^6 cells) was “significantly higher than 35”. Under “nuclei extracted with PBS-Triton 0.5%”, the “concentration in nucleus (nuclear uptake, mean fluorescence)” value is “significantly higher than 35”.
